Laboratory results published in patent US20250134895A1, “METHODS AND COMPOSITIONS FOR TREATING ALPHA-SYNUCLEIN-MEDIATED NEURODEGENERATION” (UNIVERSITY HEALTH NETWORK, priority 2021, published 2025).

Tests used:
HSP70 = HSP70 immunofluorescence in V1S-SV2 primary cortical rat neurons; format: cell-based; conditions: 10 μM
Method: (§1) To investigate the mechanism underlying these drug effects, experiments were directed towards the potential involvement of molecular chaperone HSP70. HSP70 is known to play an essential role in suppressing α-synuclein aggregation, and in particular the inhibition of α-synuclein oligomer formation (Tao et al., 2020). To investigate the in silico predictions of HSP70 interactions with top drug candidates from the Cyclica proteome screening, fluorescence intensity was measured in V1 S-SV2 primary cortical rat neurons (FIGS. 15A and E) for potential effects on α-synuclein oligomers.
Pregnant Sprague Dawley rats (E17) were purchased from Charles River. […] Cells were washed three more times before being counter-stained with DAPI for 5 mins and mounted using ProLong Gold mounting medium for fluorescence (ThermoFisher). […] Fluorescence intensity was analysed automatically using Imaris imaging software (Oxford Instruments) by measuring the mean fluorescence intensity of each individual fluorescent neuron using the “surfaces” module. This module detects fluorescence above background threshold in each field of view, identifies a cell body and neuronal projections of each cell, and calculates the mean fluorescence intensity of each fluorescent cell within the field of view. […] The value generated for each neuron was normalized to the mean of fluorescence intensity of neurons treated with vehicle alone. […]

HSP70 mRNA = experiment: Real-time quantitative RT-PCR of HSP70 mRNA in rat primary cortical neurons; format: cell-based; conditions: 10 μM
Method: FIG. 18. […] Real-time quantitative RT-PCR was performed with 3 distinct primer sets for HSP70. β-Actin was used as the reference gene and the expression of HSP70 mRNA was analyzed by 2^−ΔΔCT method. The control group treated with DMSO was set as calibrator sample representing the 1×expression. Data are presented as mean±SEM. (n=3 independent experiments, unpaired two-tailed Student's t-test, ** p<0.01)
as §1, with “HSP70 is known to play an essential role in suppressing α-synuclein aggregation, and in particular the inhibition of α-synuclein oligomer formation (Tao et al., 2020).” left out
Total RNA was isolated from the cultured neurons on DIV 5 using RNeasy Mini Kit (50) (Qiagen, Cat #74104) according to the manufacturer's instructions. RNA quantity and purity were determined by spectrophotometric analysis (NanoDrop 2000c; Thermo Scientific). […] Quantitative real-time PCR was performed in the Quant Studio™ 5 Real-Time PCR System (ThermoFisher Scientific) using Power Track™ SYBR Green Master Mix (Invitrogen, Cat #A46109). […]

## Nc1nc(NC2CC2)c2ncn([C@H]3C=C[C@@H](CO)C3)c2n1 [Abacavir, abacavir]
HSP70
  HSP70 fluorescence compared to vehicle control: significantly increased
HSP70 mRNA
  HSP70 mRNA levels compared with vehicle control: increased
